Paper PMC4554834 (Bioorganic & medicinal chemistry, 2015)

Target: T1, human OX1 receptors (Homo sapiens, UniProt O43613)
T1 sequence (O43613 1-425): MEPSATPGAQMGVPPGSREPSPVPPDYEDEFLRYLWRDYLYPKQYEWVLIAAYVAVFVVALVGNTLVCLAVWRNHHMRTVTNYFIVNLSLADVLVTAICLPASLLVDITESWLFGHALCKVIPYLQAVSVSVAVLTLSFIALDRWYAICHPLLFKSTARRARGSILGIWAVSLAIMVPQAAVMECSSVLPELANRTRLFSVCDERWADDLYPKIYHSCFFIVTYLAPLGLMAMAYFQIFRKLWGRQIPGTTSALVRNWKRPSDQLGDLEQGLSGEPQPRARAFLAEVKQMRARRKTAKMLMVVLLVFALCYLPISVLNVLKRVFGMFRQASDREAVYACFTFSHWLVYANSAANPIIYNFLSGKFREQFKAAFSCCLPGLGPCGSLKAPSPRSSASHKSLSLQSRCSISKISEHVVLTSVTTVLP
Test: Calcium mobilization Ke
Assay type: cell-based
Conditions: for OX1 potency (in words): qualitative statement

| SMILES | Kb [µM] | other results |
| --- | --- | --- |
| CCCOc1ccc2c(c1)CCN(CC(=O)NCc1ccccc1)C2Cc1ccc(OC)c(OC)c1 (centres unmarked) [17a, N-Benzyl-2-{1-[(3,4-dimethoxyphenyl)methyl]-6-propoxy-1,2,3,4-tetrahydroisoquinolin-2-yl}acetamide] | > 10 | – |
| COc1ccc(CC2c3ccc(OC(C)C)cc3CCN2CC(=O)NCc2ccccc2)cc1OC (centres unmarked) [17c, N-Benzyl-2-{1-[(3,4-dimethoxyphenyl)methyl]-6-(propan-2-yloxy)-1,2,3,4-tetrahydroisoquinolin-2-yl}acetamide] | > 10 | – |
| COc1ccc(CC2c3ccc(OS(=O)(=O)c4ccccc4)cc3CCN2CC(=O)NCc2ccccc2)cc1OC (centres unmarked) [18b, 2-[(Benzylcarbamoyl)methyl]-1-[(3,4-dimethoxyphenyl)methyl]-1,2,3,4-tetrahydroisoquinolin-6-yl benzenesulfonate] | > 10 | – |
| CCOc1ccc2c(c1)C(Cc1ccc(OC)c(OC)c1)N(CC(=O)NCc1ccccc1)CC2 (centres unmarked) [10b, N-Benzyl-2-{1-[(3,4-dimethoxyphenyl)methyl]-7-ethoxy-1,2,3,4-tetrahydroisoquinolin-2-yl}acetamide] | 0.0373 ± 0.0078 | – |
| COc1ccc(CC2c3ccc(NS(C)(=O)=O)cc3CCN2CC(=O)NCc2ccccc2)cc1OC (centres unmarked) [compound 27, N-Benzyl-2-{1-[(3,4-dimethoxyphenyl)methyl]-6-methanesulfonamido-1,2,3,4-tetrahydroisoquinolin-2-yl}acetamide] | > 10 | OX1 potency (in words): no significant potency |
| COc1ccc(CC2c3ccc(OCC(F)(F)F)cc3CCN2CC(=O)NCc2ccccc2)cc1OC (centres unmarked) [17b, N-Benzyl-2-{1-[(3,4-dimethoxyphenyl)methyl]-6-(2,2,2-trifluoroethoxy)-1,2,3,4-tetrahydroisoquinolin-2-yl}acetamide] | > 10 | – |
| COc1ccc(CC2c3ccc(OCc4ccccc4)cc3CCN2CC(=O)NCc2ccccc2)cc1OC (centres unmarked) [17d, N-Benzyl-2-[6-(benzyloxy)-1-[(3,4-dimethoxyphenyl)methyl]-1,2,3,4-tetrahydroisoquinolin-2-yl]acetamide] | > 10 | – |
| CCOC(=O)CCCCCCOc1ccc2c(c1)CCN(CC(=O)NCc1ccccc1)C2Cc1ccc(OC)c(OC)c1 (centres unmarked) [17f, Ethyl 7-({2-[(benzylcarbamoyl)methyl]-1-[(3,4-dimethoxyphenyl)methyl]-1,2,3,4-tetrahydroisoquinolin-6-yl}oxy)heptanoate] | > 10 | – |
| COc1ccc(CC2c3cc(OC(C)C)ccc3CCN2CC(=O)NCc2ccccc2)cc1OC (centres unmarked) [10d, N-Benzyl-2-{1-[(3,4-dimethoxyphenyl)methyl]-7-(propan-2-yloxy)-1,2,3,4-tetrahydroisoquinolin-2-yl}acetamide] | 0.0497 ± 0.011 | – |

Second part, led by results:

| Kb [µM] | SMILES | other results |
| --- | --- | --- |
| > 10 | COc1ccc(CC2c3ccc(N4CCCCC4)cc3CCN2CC(=O)NCc2ccccc2)cc1OC (centres unmarked) [25q, N-Benzyl-2-{1-[(3,4-dimethoxyphenyl)methyl]-6-(piperidin-1-yl)-1,2,3,4-tetrahydroisoquinolin-2-yl}acetamide] | OX1 potency (in words): no detectable potency |
| 0.427 ± 0.069 | CCOC(=O)CNc1ccc2c(c1)CCN(CC(=O)NCc1ccccc1)C2Cc1ccc(OC)c(OC)c1 (centres unmarked) [26a, Ethyl 2-({2-[(benzylcarbamoyl)methyl]-1-[(3,4-dimethoxyphenyl)methyl]-1,2,3,4-tetrahydroisoquinolin-6-yl}amino)acetate] | OX1 potency (in words): some activity |
| > 10 | CCCCCCNc1ccc2c(c1)CCN(CC(=O)NCc1ccccc1)C2Cc1ccc(OC)c(OC)c1 (centres unmarked) [25t, N-Benzyl-2-{1-[(3,4-dimethoxyphenyl)methyl]-6-(hexylamino)-1,2,3,4-tetrahydroisoquinolin-2-yl}acetamide] | – |
| > 10 | CCOC(=O)C(C)Nc1ccc2c(c1)CCN(CC(=O)NCc1ccccc1)C2Cc1ccc(OC)c(OC)c1 (centres unmarked) [26b, Ethyl 2-({2-[(benzylcarbamoyl)methyl]-1-[(3,4-dimethoxyphenyl)methyl]-1,2,3,4-tetrahydroisoquinolin-6-yl}amino)propanoate] | – |
| > 10 | COc1ccc(CC2c3ccc(NCCN4CCCCC4)cc3CCN2CC(=O)NCc2ccccc2)cc1OC (centres unmarked) [25o, N-Benzyl-2-{1-[(3,4-dimethoxyphenyl)methyl]-6-{[2-(piperidin-1-yl)ethyl]amino}-1,2,3,4-tetrahydroisoquinolin-2-yl}acetamide] | OX1 potency (in words): loss of detectable potency |
| > 10 | COc1ccc(CC2c3ccc(NCc4ccncc4)cc3CCN2CC(=O)NCc2ccccc2)cc1OC (centres unmarked) [25m, N-Benzyl-2-{1-[(3,4-dimethoxyphenyl)methyl]-6-[(pyridin-4-ylmethyl)amino]-1,2,3,4-tetrahydroisoquinolin-2-yl}acetamide] | – |
| > 10 | COc1ccc(CC2c3ccc(N(C)Cc4ccccc4)cc3CCN2CC(=O)NCc2ccccc2)cc1OC (centres unmarked) [25i, N-Benzyl-2-{6-[benzyl(methyl)amino]-1-[(3,4-dimethoxyphenyl)methyl]-1,2,3,4-tetrahydroisoquinolin-2-yl}acetamide] | – |
| > 10 | CCCNc1ccc2c(c1)CCN(CC(=O)NCc1ccccc1)C2Cc1ccc(OC)c(OC)c1 (centres unmarked) [25b, N-Benzyl-2-{1-[(3,4-dimethoxyphenyl)methyl]-6-(propylamino)-1,2,3,4-tetrahydroisoquinolin-2-yl}acetamide] | – |
| > 10 | CCCCCCN(C)c1ccc2c(c1)CCN(CC(=O)NCc1ccccc1)C2Cc1ccc(OC)c(OC)c1 (centres unmarked) [25u, N-Benzyl-2-{1-[(3,4-dimethoxyphenyl)methyl]-6-[hexyl(methyl)amino]-1,2,3,4-tetrahydroisoquinolin-2-yl}acetamide] | – |
| 1.01 ± 0.2 | COc1ccc(CC2c3ccc(NCCCC(=O)OC(C)(C)C)cc3CCN2CC(=O)NCc2ccccc2)cc1OC (centres unmarked) [26e, Tert-butyl 4-({2-[(benzylcarbamoyl)methyl]-1-[(3,4-dimethoxyphenyl)methyl]-1,2,3,4-tetrahydroisoquinolin-6-yl}amino)butanoate] | mode of antagonism at OX1 (15 minute pre-incubation): insurmountable antagonism; mode of antagonism at OX1 (pre-incubation increased to 45 min and 60 min): competitive antagonists; mode of antagonism at OX1 (simultaneous addition of antagonist and Orexin A): competitive antagonists |
| 5.23 ± 0.68 | CCCCCCNC(=O)Nc1ccc2c(c1)CCN(CC(=O)NCc1ccccc1)C2Cc1ccc(OC)c(OC)c1 (centres unmarked) [28e, N-Benzyl-2-{1-[(3,4-dimethoxyphenyl)methyl]-6-[(hexylcarbamoyl)amino]-1,2,3,4-tetrahydroisoquinolin-2-yl}acetamide] | OX1 potency (in words): no significant potency |
| 0.809 ± 0.2 | CCOC(=O)CCNc1ccc2c(c1)CCN(CC(=O)NCc1ccccc1)C2Cc1ccc(OC)c(OC)c1 (centres unmarked) [26c, Ethyl 3-({2-[(benzylcarbamoyl)methyl]-1-[(3,4-dimethoxyphenyl)methyl]-1,2,3,4-tetrahydroisoquinolin-6-yl}amino)propanoate] | OX1 potency (in words): some activity |
| 1.1 ± 0.29 | COc1ccc(CC2c3ccc(NCc4ccccc4)cc3CCN2CC(=O)NCc2ccccc2)cc1OC (centres unmarked) [25h, N-Benzyl-2-[6-(benzylamino)-1-[(3,4-dimethoxyphenyl)methyl]-1,2,3,4-tetrahydroisoquinolin-2-yl]acetamide] | – |
| 1.27 ± 0.11 | COc1ccc(CC2c3ccc(NCc4cccnc4)cc3CCN2CC(=O)NCc2ccccc2)cc1OC (centres unmarked) [25n, N-Benzyl-2-{1-[(3,4-dimethoxyphenyl)methyl]-6-[(pyridin-3-ylmethyl)amino]-1,2,3,4-tetrahydroisoquinolin-2-yl}acetamide] | – |
| 2.35 ± 0.49 | CCCN(CCC)c1ccc2c(c1)CCN(CC(=O)NCc1ccccc1)C2Cc1ccc(OC)c(OC)c1 (centres unmarked) [25d, N-Benzyl-2-{1-[(3,4-dimethoxyphenyl)methyl]-6-(dipropylamino)-1,2,3,4-tetrahydroisoquinolin-2-yl}acetamide] | – |
| 0.619 ± 0.096 | CCCN(C)c1ccc2c(c1)CCN(CC(=O)NCc1ccccc1)C2Cc1ccc(OC)c(OC)c1 (centres unmarked) [25c, N-Benzyl-2-{1-[(3,4-dimethoxyphenyl)methyl]-6-[methyl(propyl)amino]-1,2,3,4-tetrahydroisoquinolin-2-yl}acetamide] | – |
| > 10 | COc1ccc(CC2c3ccc(NCC4CC4)cc3CCN2CC(=O)NCc2ccccc2)cc1OC (centres unmarked) [25f, N-Benzyl-2-{6-[(cyclopropylmethyl)amino]-1-[(3,4-dimethoxyphenyl)methyl]-1,2,3,4-tetrahydroisoquinolin-2-yl}acetamide] | – |
| > 10 | CCCCCN(C)c1ccc2c(c1)CCN(CC(=O)NCc1ccccc1)C2Cc1ccc(OC)c(OC)c1 (centres unmarked) [25s, N-Benzyl-2-{1-[(3,4-dimethoxyphenyl)methyl]-6-[methyl(pentyl)amino]-1,2,3,4-tetrahydroisoquinolin-2-yl}acetamide] | – |
| > 10 | COc1ccc(CC2c3ccc(NC(C)C)cc3CCN2CC(=O)NCc2ccccc2)cc1OC (centres unmarked) [25e, N-Benzyl-2-{1-[(3,4-dimethoxyphenyl)methyl]-6-[(propan-2-yl)amino]-1,2,3,4-tetrahydroisoquinolin-2-yl}acetamide] | – |
| > 10 | COc1ccc(CC2c3ccc(NCC(=O)N(C)C)cc3CCN2CC(=O)NCc2ccccc2)cc1OC (centres unmarked) [26h, 2-({2-[(Benzylcarbamoyl)methyl]-1-[(3,4-dimethoxyphenyl)methyl]-1,2,3,4-tetrahydroisoquinolin-6-yl}amino)-N,N-dimethylacetamide] | OX1 potency (in words): large decline in potency |
| > 10 | COc1ccc(CC2c3ccc(NC(=O)Nc4ccccc4)cc3CCN2CC(=O)NCc2ccccc2)cc1OC (centres unmarked) [28d, N-Benzyl-2-{1-[(3,4-dimethoxyphenyl)methyl]-6-[(phenylcarbamoyl)amino]-1,2,3,4-tetrahydroisoquinolin-2-yl}acetamide] | OX1 potency (in words): no significant potency |
